Test results as given in patent US10125126B2, “N-cycloalkyl-N-[(heterocyclylphenyl)methylene]-(thio)carboxamide derivatives” (BAYER CROPSCIENCE AG, priority 2012, dated 2018).

How the values were obtained:
Pyrenophora teres = assay: In vivo preventive test on Pyrenophora teres (barley); conditions: 500 ppm of active ingredient; barley plants; 14 days after contamination
In short: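 Barley ("Plaisant") grown at 22° C was sprayed at the 1-leaf stage (10 cm) with active ingredient in acetone/tween/DMSO/water, with solvent-only controls. After 24 h, leaves were inoculated with Pyrenophora teres spores (12 000 spores per mL) from 12-day cultures. % efficacy versus controls graded 14 days post-contamination.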

Uromyces appendiculatus = assay: In vivo preventive test on Uromyces appendiculatus (bean rust); conditions: 500 ppm of active ingredient; bean plants; 11 days after contamination
In short: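 Saxa bean plants at 2-leaf stage, grown at 24° C., sprayed preventively with compound; 24 h later inoculated with U. appendiculatus spores (150 000 spores per mL). Percent efficacy graded 11 days after inoculation versus solvent-treated controls.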

Venturia inaequalis = assay: In vivo preventive test on Venturia inaequalis (apples); conditions: 100 ppm of active ingredient, evaluated 10 days after inoculation
Protocol: In Vivo Preventive Test on Venturia inaequalis (apples) [table] To produce a suitable preparation of active compound, 1 part by weight of active compound is mixed with the stated amounts of solvent and emulsifier, and the concentrate is diluted with water to the desired concentration. To test for preventive activity, young plants are sprayed with the preparation of active compound at the stated rate of application. After the spray coating has dried on, the plants are inoculated with an aqueous conidia suspension of the causal agent of apple scab (Venturia inaequalis) and then remain for 1 day in an incubation cabinet at approximately 20° C. and a relative atmospheric humidity of 100%. The plants are then placed in a greenhouse at approximately 21° C. and a relative atmospheric humidity of approximately 90%.

With CC(C)c1ccc(-c2csc3ccccc23)cc1CN(C(=O)c1c(C(F)F)nn(C)c1F)C1CC1 [I.157, N-[5-(1-benzothiophen-3-yl)-2-isopropylbenzyl]-N-cyclopropyl-3-(difluoromethyl)-5-fluoro-1-methyl-1H-pyrazole-4-carboxamide] the Efficacy (Pyrenophora teres) was 93%, the Efficacy (Uromyces appendiculatus) was 100% and the Efficacy (Venturia inaequalis) was 100%.
